ChEMBL document CHEMBL1151717, “In vivo active aldosterone synthase inhibitors with improved selectivity: lead optimization providing a series of pyridine substituted 3,4-dihydro-1H-quinolin-2-one derivatives” (J Med Chem, 2008)

What was measured:
[1] = molecular target: T1, Cytochrome P450 11B1, mitochondrial (Homo sapiens, UniProt P15538)
T1 sequence (P15538 whole entry): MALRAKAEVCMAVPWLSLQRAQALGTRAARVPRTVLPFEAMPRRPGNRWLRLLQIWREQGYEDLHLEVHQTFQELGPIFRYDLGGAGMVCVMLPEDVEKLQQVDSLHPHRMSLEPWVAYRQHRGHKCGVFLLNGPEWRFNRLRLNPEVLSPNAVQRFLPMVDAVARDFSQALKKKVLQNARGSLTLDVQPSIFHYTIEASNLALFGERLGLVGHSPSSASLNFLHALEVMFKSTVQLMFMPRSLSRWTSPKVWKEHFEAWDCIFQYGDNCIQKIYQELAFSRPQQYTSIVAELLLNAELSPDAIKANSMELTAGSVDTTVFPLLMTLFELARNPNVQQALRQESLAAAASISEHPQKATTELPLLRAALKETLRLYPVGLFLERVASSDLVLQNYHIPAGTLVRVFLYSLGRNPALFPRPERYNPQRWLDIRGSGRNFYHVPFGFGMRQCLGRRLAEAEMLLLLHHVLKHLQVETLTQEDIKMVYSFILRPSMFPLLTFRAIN

[2] = molecular target: Cytochrome P450 2D6 (Homo sapiens, UniProt P10635); experiment: Inhibition of human recombinant CYP2D6 expressed in baculovirus-infected insect microsomes; assay type: ADME, Microsome
Cytochrome P450 2D6, sequence (P10635 whole entry): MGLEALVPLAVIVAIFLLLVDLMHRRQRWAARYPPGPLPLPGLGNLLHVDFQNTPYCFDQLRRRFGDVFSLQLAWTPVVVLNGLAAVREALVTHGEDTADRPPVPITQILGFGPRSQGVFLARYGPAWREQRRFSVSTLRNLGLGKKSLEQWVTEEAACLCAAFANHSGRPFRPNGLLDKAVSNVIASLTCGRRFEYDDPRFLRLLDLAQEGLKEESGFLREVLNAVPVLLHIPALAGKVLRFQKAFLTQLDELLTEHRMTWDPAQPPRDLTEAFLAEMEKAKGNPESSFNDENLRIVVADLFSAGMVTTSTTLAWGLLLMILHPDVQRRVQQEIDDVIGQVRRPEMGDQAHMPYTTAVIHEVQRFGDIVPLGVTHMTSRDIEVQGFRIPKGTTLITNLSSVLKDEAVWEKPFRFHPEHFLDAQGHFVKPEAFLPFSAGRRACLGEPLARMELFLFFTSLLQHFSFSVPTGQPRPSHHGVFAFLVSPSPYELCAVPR

[3] = molecular target: Cytochrome P450 2C9 (Homo sapiens, UniProt P11712); experiment: Inhibition of human recombinant CYP2C9 expressed in baculovirus-infected insect microsomes; assay type: ADME, Microsome
Cytochrome P450 2C9, sequence (P11712 whole entry): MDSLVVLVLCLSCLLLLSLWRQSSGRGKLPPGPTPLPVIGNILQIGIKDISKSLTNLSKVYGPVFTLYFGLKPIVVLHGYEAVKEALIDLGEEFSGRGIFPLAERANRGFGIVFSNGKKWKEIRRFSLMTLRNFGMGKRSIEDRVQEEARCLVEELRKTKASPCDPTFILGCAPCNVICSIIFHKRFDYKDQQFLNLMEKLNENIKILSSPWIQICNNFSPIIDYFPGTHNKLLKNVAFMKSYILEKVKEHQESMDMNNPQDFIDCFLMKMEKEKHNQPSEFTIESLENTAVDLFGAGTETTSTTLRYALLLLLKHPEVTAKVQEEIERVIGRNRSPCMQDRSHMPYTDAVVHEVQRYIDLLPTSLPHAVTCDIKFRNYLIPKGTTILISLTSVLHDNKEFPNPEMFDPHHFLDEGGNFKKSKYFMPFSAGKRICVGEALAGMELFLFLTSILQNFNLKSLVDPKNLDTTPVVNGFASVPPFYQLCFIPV

[4] = molecular target: T2, Cytochrome P450 11B2, mitochondrial (Homo sapiens, UniProt P19099)
T2 sequence (P19099 whole entry): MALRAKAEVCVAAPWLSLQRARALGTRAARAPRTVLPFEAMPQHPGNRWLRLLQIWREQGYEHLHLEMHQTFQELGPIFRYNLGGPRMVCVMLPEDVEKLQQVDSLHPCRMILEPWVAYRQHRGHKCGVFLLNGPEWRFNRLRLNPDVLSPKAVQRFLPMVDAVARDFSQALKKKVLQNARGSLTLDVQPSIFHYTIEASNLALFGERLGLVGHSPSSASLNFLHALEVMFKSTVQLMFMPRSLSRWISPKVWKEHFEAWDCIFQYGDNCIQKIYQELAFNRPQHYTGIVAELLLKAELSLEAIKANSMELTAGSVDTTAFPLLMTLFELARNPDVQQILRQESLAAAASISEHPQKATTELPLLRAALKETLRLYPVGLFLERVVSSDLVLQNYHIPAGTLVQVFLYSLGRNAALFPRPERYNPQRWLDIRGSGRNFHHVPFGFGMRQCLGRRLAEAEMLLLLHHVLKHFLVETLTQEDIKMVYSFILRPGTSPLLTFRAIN

[5] = molecular target: Cytochrome P450 2C19 (Homo sapiens, UniProt P33261); experiment: Inhibition of human recombinant CYP2C19 expressed in baculovirus-infected insect microsomes; assay type: ADME, Microsome; details: read-out: IC50
Cytochrome P450 2C19, sequence (P33261 whole entry): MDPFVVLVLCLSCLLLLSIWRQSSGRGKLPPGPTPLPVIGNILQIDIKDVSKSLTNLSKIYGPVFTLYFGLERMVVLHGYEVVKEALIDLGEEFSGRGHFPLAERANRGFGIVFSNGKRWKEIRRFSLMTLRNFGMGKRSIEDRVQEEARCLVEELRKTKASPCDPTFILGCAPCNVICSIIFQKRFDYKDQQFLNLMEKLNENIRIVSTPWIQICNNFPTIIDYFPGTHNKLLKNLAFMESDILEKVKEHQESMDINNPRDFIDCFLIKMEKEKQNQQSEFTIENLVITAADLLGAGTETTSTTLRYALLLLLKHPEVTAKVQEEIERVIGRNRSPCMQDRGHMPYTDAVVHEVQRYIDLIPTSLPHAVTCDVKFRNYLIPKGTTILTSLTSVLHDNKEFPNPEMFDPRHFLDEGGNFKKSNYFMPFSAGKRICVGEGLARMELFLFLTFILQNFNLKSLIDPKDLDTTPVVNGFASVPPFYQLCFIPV

[6] = molecular target: T3, CYP19 (aromatase) (Homo sapiens, UniProt P11511); experiment: Inhibition of human placental CYP19 at 500 nM; assay type: functional
T3 sequence (P11511 whole entry): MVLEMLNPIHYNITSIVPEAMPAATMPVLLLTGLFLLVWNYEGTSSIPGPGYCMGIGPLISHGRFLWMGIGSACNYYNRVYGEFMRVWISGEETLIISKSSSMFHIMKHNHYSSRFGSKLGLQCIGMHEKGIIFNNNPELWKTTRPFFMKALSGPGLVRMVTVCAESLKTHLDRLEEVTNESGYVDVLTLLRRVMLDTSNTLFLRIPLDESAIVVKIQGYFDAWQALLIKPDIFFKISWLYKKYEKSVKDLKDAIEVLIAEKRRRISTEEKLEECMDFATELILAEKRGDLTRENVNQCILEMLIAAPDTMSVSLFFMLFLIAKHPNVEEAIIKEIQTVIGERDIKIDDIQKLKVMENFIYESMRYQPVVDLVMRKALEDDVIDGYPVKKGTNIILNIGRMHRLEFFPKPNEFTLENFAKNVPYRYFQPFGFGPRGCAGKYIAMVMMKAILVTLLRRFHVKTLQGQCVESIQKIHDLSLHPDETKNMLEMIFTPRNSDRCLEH

[7] = molecular target: Cytochrome P450 3A4 (Homo sapiens, UniProt P08684); experiment: Inhibition of human recombinant CYP3A4 expressed in baculovirus-infected insect microsomes; assay type: ADME, Microsome
Cytochrome P450 3A4, sequence (P08684 whole entry): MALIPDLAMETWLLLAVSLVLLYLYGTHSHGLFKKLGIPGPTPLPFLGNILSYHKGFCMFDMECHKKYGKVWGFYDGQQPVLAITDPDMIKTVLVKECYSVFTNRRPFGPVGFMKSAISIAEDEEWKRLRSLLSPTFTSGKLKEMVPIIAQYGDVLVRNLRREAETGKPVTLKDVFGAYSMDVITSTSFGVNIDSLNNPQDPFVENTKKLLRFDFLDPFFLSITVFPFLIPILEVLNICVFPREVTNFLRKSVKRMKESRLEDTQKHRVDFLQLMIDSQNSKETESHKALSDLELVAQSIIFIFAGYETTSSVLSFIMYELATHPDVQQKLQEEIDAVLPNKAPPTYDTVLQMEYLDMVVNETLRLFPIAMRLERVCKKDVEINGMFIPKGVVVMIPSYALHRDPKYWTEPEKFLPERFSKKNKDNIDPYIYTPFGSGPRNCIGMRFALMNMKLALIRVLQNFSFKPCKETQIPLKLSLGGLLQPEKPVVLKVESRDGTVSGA

[8] = molecular target: T4, CYP1A2 (Homo sapiens, UniProt P05177); experiment: Inhibition of human recombinant CYP1A2 expressed in baculovirus-infected insect microsomes at 2 uM; assay type: ADME, Microsome
T4 sequence (P05177 whole entry): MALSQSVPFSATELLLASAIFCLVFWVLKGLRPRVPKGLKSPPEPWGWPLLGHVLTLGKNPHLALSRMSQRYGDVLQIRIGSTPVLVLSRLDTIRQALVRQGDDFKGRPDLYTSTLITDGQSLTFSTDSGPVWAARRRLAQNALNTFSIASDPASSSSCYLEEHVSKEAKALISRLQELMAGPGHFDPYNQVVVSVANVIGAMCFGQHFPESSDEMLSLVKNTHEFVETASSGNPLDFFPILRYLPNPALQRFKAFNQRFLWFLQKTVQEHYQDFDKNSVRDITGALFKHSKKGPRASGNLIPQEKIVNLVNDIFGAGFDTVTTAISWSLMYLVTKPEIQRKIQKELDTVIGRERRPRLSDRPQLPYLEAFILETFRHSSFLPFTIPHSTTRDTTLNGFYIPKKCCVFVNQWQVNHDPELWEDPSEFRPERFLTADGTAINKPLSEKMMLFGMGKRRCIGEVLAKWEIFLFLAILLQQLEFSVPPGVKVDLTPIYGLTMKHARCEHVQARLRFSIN

[9] = molecular target: T5, CYP17 (Homo sapiens, UniProt P05093); experiment: in vitro; details: human CYP17 expressed in Escherichia coli
T5 sequence (P05093 whole entry): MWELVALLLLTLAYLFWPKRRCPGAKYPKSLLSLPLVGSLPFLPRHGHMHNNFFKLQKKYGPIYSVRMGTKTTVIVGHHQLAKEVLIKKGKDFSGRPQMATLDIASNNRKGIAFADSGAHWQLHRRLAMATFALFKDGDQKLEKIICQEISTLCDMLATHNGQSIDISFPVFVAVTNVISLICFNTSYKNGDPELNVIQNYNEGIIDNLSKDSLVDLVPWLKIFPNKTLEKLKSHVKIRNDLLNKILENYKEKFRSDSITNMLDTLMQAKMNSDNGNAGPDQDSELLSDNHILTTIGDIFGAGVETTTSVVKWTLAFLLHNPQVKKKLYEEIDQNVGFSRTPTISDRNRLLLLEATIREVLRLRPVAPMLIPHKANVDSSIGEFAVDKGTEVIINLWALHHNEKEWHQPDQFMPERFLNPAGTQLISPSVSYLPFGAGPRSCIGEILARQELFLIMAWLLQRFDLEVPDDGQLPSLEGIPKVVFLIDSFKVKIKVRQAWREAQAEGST
Description: Inhibition of human CYP17 expressed in Escherichia coli at 2.5 uM

[10] = species: Homo sapiens; experiment: Selectivity ratio, IC50 for human CYP11B1 to IC50 for human CYP11B2

## O=C1CCc2cc(-c3cncc4ccccc34)ccc2N1
[1]
  IC50: 0.033 µM
[2]; read-out: IC50
  IC50: < 50 µM
[3]
  IC50: 2.9 µM
[4]
  IC50: 0.0002 µM
[5]
  IC50: 9.2 µM
[6]
  inhibition at 0.5 µM: < 5%
[7]
  IC50: < 50 µM
[8]
  inhibition at 2 µM: < 5%
[9]
  inhibition at 2.5 µM: 22%
[10]
  Ratio IC50: 187

## O=C1CCc2cc(-c3cccnc3)ccc2C1
[1]
  IC50: 3.96 µM
[2]; read-out: IC50
  IC50: 171 µM
[3]
  IC50: 28.3 µM
[4]
  IC50: 0.0078 µM
[5]
  IC50: 41.5 µM
[6]
  inhibition at 0.5 µM: 31%
[7]
  IC50: 6.21 µM
[8]
  inhibition at 2 µM: 60%
[9]
  inhibition at 2.5 µM: 20%
[10]
  Ratio IC50: 496

## COc1cncc(-c2ccc3c(c2)CCC(=O)C3)c1
[1]
  IC50: 0.191 µM
[2]
  IC50: < 200 µM
[3]
  IC50: 12.9 µM
[4]
  IC50: 0.0018 µM
[5]
  IC50: 45.4 µM
[6]
  inhibition at 0.5 µM: 58%
[7]
  IC50: 3.8 µM
[8]
  inhibition at 2 µM: 57%
[9]
  inhibition at 2.5 µM: 21%
[10]
  Ratio IC50: 106
